From patent EP4745135A1 (Gluetacs Therapeutics (Shanghai) Co., Ltd., priority 2023, dated 2025)

Target: T1, human Cereblon WT GST-tagged protein (Homo sapiens, UniProt Q96SW2)
T1 construct: purchased CISBIO 64BDCRBNPEH
Experiment: CRBN-binding affinity, HTRF (CEREBLON BINDING kit)
Settings: for IC50: CRBN binding, HTRF, 3 hours at room temperature, read-out: HTRF IC50; for inhibition at 0.5 µM: read-out: Inhibition Rate at 0.5 µM (%); for inhibition at 2 µM: read-out: Inhibition Rate at 2 µM (%)
Procedure: The CEREBLON BINDING kits (specification: 10,000 tests; product number: Catalog # 64BDCRBNPEH; CISBIO company) was used to determine the CRBN binding ability of the compounds to be tested through a HTRF method (homogeneous time-resolved fluorescence). The specific methods are as follows: • 1. […] Specifically, diluent #9 (1X) solution was used as the diluent, and multiple concentration gradients were set. […] Then, 2.5 µL of human Cereblon WT GST-tagged protein solution was added to each well. Finally, 5 µL of the thoroughly mixed Thalidomide-Re reagent and GST Eu antibody working solution were added to each of the aforementioned wells. […] The blank control wells were sequentially added with 2.5 µL of diluent #9 (1X) solution, 2.5 µL of PROTAC binding buffer, and 5 µL of thoroughly mixed Thalidomide-Re reagent and GST Eu antibody working solution. • 4.

T1 sequence (Q96SW2 whole entry): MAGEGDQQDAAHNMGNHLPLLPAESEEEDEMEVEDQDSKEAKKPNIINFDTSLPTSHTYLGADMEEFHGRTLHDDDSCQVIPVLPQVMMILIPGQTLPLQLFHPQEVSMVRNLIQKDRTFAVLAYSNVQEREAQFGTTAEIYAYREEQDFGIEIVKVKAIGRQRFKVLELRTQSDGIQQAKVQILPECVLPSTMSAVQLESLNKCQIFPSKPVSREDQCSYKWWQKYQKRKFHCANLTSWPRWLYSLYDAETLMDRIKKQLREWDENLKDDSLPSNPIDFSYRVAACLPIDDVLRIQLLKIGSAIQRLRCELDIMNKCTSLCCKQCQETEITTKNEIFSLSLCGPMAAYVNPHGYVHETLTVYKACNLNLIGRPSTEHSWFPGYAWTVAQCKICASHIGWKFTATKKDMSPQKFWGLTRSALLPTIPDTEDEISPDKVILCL

Structure (SMILES) | IC50 | inhibition at 0.5 µM | inhibition at 2 µM
O=C1CCC(N2Cc3cc(CN4CCn5c(nnc5C(F)(F)F)C4)ccc3C2=S)C(=O)N1 (stereo not shown) [GT-05090, 3-(1-thioxo-5-((3-(trifluoromethyl)-5,6-dihydro-[1,2,4]triazolo[4,3-a]pyrazin-7(8H)-yl)methyl)isoindolin-2-yl)piperidine-2,6-dione] | 0.1 to 0.5 µM |  | 
O=C1CCC(N2Cc3c(CN4CCN(Cc5ccccc5-c5ccc(Cl)cc5)CC4)cccc3C2=S)C(=O)N1 (stereo not shown) [GT-08295, 3-(4-((4-((4'-chloro-[1,1'-biphenyl]-2-yl)methyl)piperazin-1-yl)methyl)-1-thioxoisoindolin-2-yl)piperidine-2,6-dione] |  | 30 to 40% | 60 to 80%
Cc1ccc(N2CCN(Cc3ccc4c(c3)CN(C3CCC(=O)NC3=O)C4=S)CC2)c(C)c1 (stereo not shown) [GT-08614, 3-(5-((4-(2,4-dimethylphenyl)piperazin-1-yl)methyl)-1-thioxoisoindolin-2-yl)piperidine-2,6-dione] |  | 30 to 40% | 60 to 80%
O=C1CCC(N2Cc3c(CN4CCN(C(c5ccccc5)c5ccccn5)CC4)cccc3C2=S)C(=O)N1 (stereo not shown) [GT-08192, 3-(4-((4-(phenyl(pyridin-2-yl)methyl)piperazin-1-yl)methyl)-1-thioxoisoindolin-2-yl)piperidine-2,6-dione] |  | 60 to 80% | 80 to 100%
O=C1CCC(N2Cc3c(CO)cccc3C2=S)C(=O)N1 (stereo not shown) [GT-06981, 3-(4-(hydroxymethyl)-1-thioxoisoindolin-2-yl)piperidine-2,6-dione] | < 0.1 µM |  | 
Cc1nc(N2CCN(Cc3cccc4c3CN(C3CCC(=O)NC3=O)C4=S)CC2)c2c(-c3ccccc3)csc2n1 (stereo not shown) [GT-08921, 3-(4-((4-(2-methyl-5-phenylthieno[2,3-d]pyrimidin-4-yl)piperazin-1-yl)methyl)-1-thioxoisoindolin-2-yl)piperidine-2,6-dione] |  | 30 to 40% | 80 to 100%
O=C1CCC(N2Cc3c(CN4CCN(c5nc6c(c(N7CCNCC7)n5)SCC6)CC4)cccc3C2=S)C(=O)N1 (stereo not shown) [GT-09035, 3-(4-((4-(4-(piperazin-1-yl)-6,7-dihydrothieno[3,2-d]pyrimidin-2-yl)piperazin-1-yl)methyl)-1-thioxoisoindolin-2-yl)piperidine-2,6-dione] |  | 60 to 80% | 80 to 100%
O=C1CCC(N2Cc3c(CN4CCN(c5cccs5)CC4)cccc3C2=S)C(=O)N1 (stereo not shown) [GT-08297, 3-(4-((4-(thiophen-2-yl)piperazin-1-yl)methyl)-1-thioxoisoindolin-2-yl)piperidine-2,6-dione] |  | 60 to 80% | 80 to 100%
Cc1nc(C2CCN(Cc3ccc4c(c3)CN(C3CCC(=O)NC3=O)C4=S)CC2)c2c(-c3ccccc3)csc2n1 (stereo not shown) [GT-09308] |  | 40 to 53% | 80 to 100%
O=C1CCC(N2Cc3c(CN4CC5CCC4CN5C(c4ccccc4)c4ccccc4)cccc3C2=S)C(=O)N1 (stereo not shown) [GT-08233, 3-(4-((5-benzhydryl-2,5-diazabicyclo[2.2.2]octan-2-yl)methyl)-1-thioxoisoindolin-2-yl)piperidine-2,6-dione] |  | 53 to 60% | 80 to 100%
CC1(C)CC(c2ccc(Cl)cc2)=C(CN2CCN(Cc3cccc4c3CN(C3CCC(=O)NC3=O)C4=S)CC2)CO1 (stereo not shown) [GT-08296, 3-(4-((4-((4-(4-chlorophenyl)-6,6-dimethyl-5,6-dihydro-2H-pyran-3-yl)methyl)piperazin-1-yl)methyl)-1-thioxoisoindolin-2-yl)piperidine-2,6-dione] |  | 40 to 53% | 60 to 80%
O=C1CCC(N2Cc3cc(CN4CCN(c5cnccn5)CC4)ccc3C2=S)C(=O)N1 (stereo not shown) [GT-09253, 3-(5-((4-(pyrazin-2-yl)piperazin-1-yl)methyl)-1-thioxoisoindolin-2-yl)piperidine-2,6-dione] |  | 60 to 80% | 80 to 100%
